In patent publication US12491198B2, “Doxycycline injection for sclerotherapy of lower eyelid festoons and malar edema” (LKF21, LLC, priority 2020, dated 2025):

Tests used:
[1] = system: edema of festoons and malar mounds; experiment: Studies of doxycycline as sclerosing agent at lower concentrations and compared with tetracycline; assay type: in vivo; conditions: versus tetracycline
[2] = system: lower eyelid festoons and malar edema; assay type: in vivo, human
Method: An initial study of 15 consecutive patients with malar edema and/or festoons were injected with doxycycline hyclate at a concentration of 10 mg/mL. Pre- and post-injection photographs were reviewed and graded on a scale of 0 to 3 (0 no festoon, 1 small festoon, 2 medium festoon, 3 large festoon) by two blinded physician observers. […] Student t-test was used for statistical analysis.
Institutional Review Board (IRB) approval was obtained. A retrospective chart review was performed on 15 consecutive patients injected with doxycycline hyclate at a concentration of 10 mg/mL directly into their malar edema and festoons. The primary outcome measure was improvement in the appearance of lower eyelid festoons or malar edema. Pre- and post-injection photographs were reviewed and graded on a scale of 0 to 3 (0 no festoon, 1 small festoon, 2 medium festoon, 3 large festoon) by two blinded physician observers. All pre- and post-treatment photographs were taken in a standardized position without the use of a flash device. Written consent was obtained for the use of photographs and is on file with the authors. Additional data collected included patient age, volume of injection, location of injection, number of injections, and subjective complaints. […] Student t-test was used for statistical analysis.
Patients were offered injections in clinic or in the operating room with intravenous sedation, with or without concurrent eyelid surgery. For injections performed in the operating room, doxycycline hyclate was ordered from the hospital pharmacy at a concentration of 10 mg/mL. For injections performed in the office, doxycycline hyclate 100 mg sterile powder, lyophilized (Fresenius Kabi, Lake Zurich, Illinois, USA) was diluted to a concentration of 10 mg/mL with sterile 0.9% bacteriostatic sodium chloride solution. The solution was refrigerated at […], used within 48 hours of reconstitution, and protected from direct sunlight. Injections were performed using 1.0 mL syringes on a 30-gauge needle, directly into the festoon in multiple deep and intermediate planes beneath skin and muscle. Analysis of protected health information was compliant with the Health Insurance Portability and Accountability Act (HIPAA) and adherent to the Declaration of Helsinki.

C[C@H]1c2cccc(O)c2C(=O)C2=C(O)[C@]3(O)C(=O)C(C(N)=O)=C(O)[C@@H](N(C)C)[C@@H]3[C@@H](O)[C@@H]21 [doxycycline hyclate]
risk of necrotizing dermalysis compared with tetracycline [1]: significantly lower risk | bruising, average duration ([2]; human, in vivo): 10 days | patients reporting burning pain during the injection ([2]; human, in vivo): 100% | skin redness, average duration of symptoms ([2]; human, in vivo): 2 days | average (standard deviation) festoon grade after injection ([2]; post-injection, 10 mg/mL intralesional, scale 0 to 3, 20 treatment sides of 11 patients, mean follow up 22.5 weeks, p-value<0.001 vs initial): 0.9 (0.82) | average (standard deviation) initial festoon grade ([2]; pre-injection, scale 0 to 3 (0 no festoon, 3 large festoon), 20 treatment sides of 11 patients, two blinded physician observers): 2.5 (0.58)
